In patent publication US9296723B2, “NAMPT inhibitors” (AbbVie Inc., priority 2012, dated 2016):

Key:
[1] = test system: PC3 cells; assay: NAMPT Cell Proliferation Assay (Cell Titer Glo); format: cell-based; conditions: Homo sapiens, PC-3, 120 h, incubated 5 days, cell viability
In short: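 Viability measured by Cell Titer Glo luminescence after 5-day exposure of attached PC3 cells to compound, dosed as 10-fold serial dilutions ([…]) in RPMI/10% FBS at 37 °C and 5% CO2. Percent inhibition fitted to sigmoidal dose-response curves for IC50.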

[2] = biological target: T1, NAMPT (Homo sapiens, UniProt P43490); assay: Time-Resolved Fluorescence Resonance Energy Transfer (TR-FRET) Binding Assay of NAMPT; conditions: 6.8 nM NAMPT, 200 nM probe, equilibrated 3 hours, no substrates
In short: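 IC50s come from four-parameter logistic fits of control-normalized Em520/Em495 TR-FRET ratios (Ex 337 nm) against compound concentration. Before reading, enzyme, probe, antibody and compound equilibrated for 3 h at room temperature.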

[3] = biological target: T1, NAMPT; assay: TR-FRET Binding Assay of NAMPT with PRPP; conditions: 2 nM NAMPT, 2 nM probe, 200 µM PRPP and 2.5 mM ATP, equilibrated 16 hours
In short: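 Substrates present: PRPP at 200 µM and ATP at 2.5 mM, final, alongside 2 nM enzyme, 2 nM tracer and 1 nM terbium anti-His donor in 2% DMSO. A 16-hour equilibration preceded the time-resolved FRET read, allowing compounds to be enzymatically modified.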

T1 sequence (P43490 whole entry): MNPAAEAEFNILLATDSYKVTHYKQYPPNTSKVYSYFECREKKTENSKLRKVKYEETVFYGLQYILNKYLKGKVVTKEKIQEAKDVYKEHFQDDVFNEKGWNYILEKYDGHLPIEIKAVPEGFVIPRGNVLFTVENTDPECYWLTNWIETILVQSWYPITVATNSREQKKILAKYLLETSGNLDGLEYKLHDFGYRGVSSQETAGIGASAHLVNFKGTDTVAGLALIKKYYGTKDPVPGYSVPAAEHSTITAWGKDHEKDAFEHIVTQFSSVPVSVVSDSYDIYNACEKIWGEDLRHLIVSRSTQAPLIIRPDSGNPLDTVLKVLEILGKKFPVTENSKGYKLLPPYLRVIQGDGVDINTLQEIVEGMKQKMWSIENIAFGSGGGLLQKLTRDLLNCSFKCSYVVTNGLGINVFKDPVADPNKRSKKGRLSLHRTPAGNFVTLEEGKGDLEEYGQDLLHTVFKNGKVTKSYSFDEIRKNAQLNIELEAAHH

Work on `CCOCCC(=O)N1CCC(c2ccc(NC(=O)N3CC(c4cccnc4)C3)cc2)CC1` [Example 168, N-{4-[1-(3-ethoxypropanoyl)piperidin-4-yl]phenyl}-3-(pyridin-3-yl)azetidine-1-carboxamide] yielded an IC50 [1] of 45 nM, an IC50 [2] of 28.9 nM and an IC50 [3] of 0.503 nM.
In the case of `CCC(C)(C)C(=O)N1CCC(c2ccc(NC(=O)N3CC(c4cccnc4)C3)cc2)CC1` [Example 169, N-{4-[1-(2,2-dimethylbutanoyl)piperidin-4-yl]phenyl}-3-(pyridin-3-yl)azetidine-1-carboxamide], the IC50 [1] is reported as 7.98 nM, the IC50 [2] is reported as 5.36 nM and the IC50 [3] is reported as 0.304 nM.
Work on `CC(C)(C)CC(=O)N1CCC(c2ccc(NC(=O)N3CC(c4cccnc4)C3)cc2)CC1` [Example 170, N-{4-[1-(3,3-dimethylbutanoyl)piperidin-4-yl]phenyl}-3-(pyridin-3-yl)azetidine-1-carboxamide] yielded an IC50 [1] of 14.8 nM, an IC50 [2] of 7.07 nM and an IC50 [3] of 0.364 nM.
`CC(C)(C)C(=O)N1CCC(c2ccc(NC(=O)N3CC(c4cccnc4)C3)cc2)CC1` [Example 171, N-{4-[1-(2,2-dimethylpropanoyl)piperidin-4-yl]phenyl}-3-(pyridin-3-yl)azetidine-1-carboxamide] was tested, and the IC50 [1] was 22 nM, the IC50 [2] was 8.74 nM and the IC50 [3] was 0.231 nM.
`CCCC(=O)N1CCC(c2ccc(NC(=O)N3CC(c4cccnc4)C3)cc2)CC1` [Example 172, N-[4-(1-butanoylpiperidin-4-yl)phenyl]-3-(pyridin-3-yl)azetidine-1-carboxamide] gave an IC50 [1] of 34.5 nM, an IC50 [2] of 5.65 nM and an IC50 [3] of 0.206 nM.
Compound `CCOCC(=O)N1CCC(c2ccc(NC(=O)N3CC(c4cccnc4)C3)cc2)CC1` [Example 173, N-{4-[1-(ethoxyacetyl)piperidin-4-yl]phenyl}-3-(pyridin-3-yl)azetidine-1-carboxamide] has an IC50 [1] of 56.4 nM, an IC50 [2] of 90.4 nM and an IC50 [3] of 0.393 nM.
With `CC(C)CC(=O)N1CCC(c2ccc(NC(=O)N3CC(c4cccnc4)C3)cc2)CC1` [Example 174, N-{4-[1-(3-methylbutanoyl)piperidin-4-yl]phenyl}-3-(pyridin-3-yl)azetidine-1-carboxamide] the IC50 [1] was 24.4 nM, the IC50 [2] was 20.8 nM and the IC50 [3] was 0.325 nM.
With `CC(=O)N[C@@H](CC(C)C)C(=O)N1CCC(c2ccc(NC(=O)N3CC(c4cccnc4)C3)cc2)CC1` [Example 175, N-{4-[1-(N-acetyl-L-leucyl)piperidin-4-yl]phenyl}-3-(pyridin-3-yl)azetidine-1-carboxamide] the IC50 [1] was 67.5 nM, the IC50 [2] was 30.7 nM and the IC50 [3] was 0.403 nM.
`COCCOCC(=O)N1CCC(c2ccc(NC(=O)N3CC(c4cccnc4)C3)cc2)CC1` [Example 176, N-(4-{1-[(2-methoxyethoxy)acetyl]piperidin-4-yl}phenyl)-3-(pyridin-3-yl)azetidine-1-carboxamide] gave an IC50 [1] of 88.9 nM, an IC50 [2] of 65.5 nM and an IC50 [3] of 0.35 nM.
With `O=C(Nc1ccc(C2CCN(C(=O)C3CCCCC3)CC2)cc1)N1CC(c2cccnc2)C1` [Example 177, N-{4-[1-(cyclohexylcarbonyl)piperidin-4-yl]phenyl}-3-(pyridin-3-yl)azetidine-1-carboxamide] the IC50 [1] was 74 nM, the IC50 [2] was 15.8 nM and the IC50 [3] was 0.304 nM.
With `O=C(CC1CCCCC1)N1CCC(c2ccc(NC(=O)N3CC(c4cccnc4)C3)cc2)CC1` [Example 178, N-{4-[1-(cyclohexylacetyl)piperidin-4-yl]phenyl}-3-(pyridin-3-yl)azetidine-1-carboxamide] the IC50 [1] was 75 nM, the IC50 [2] was 13.9 nM and the IC50 [3] was 0.42 nM.
`O=C(CCC(F)(F)F)N1CCC(c2ccc(NC(=O)N3CC(c4cccnc4)C3)cc2)CC1` [Example 179, 3-(pyridin-3-yl)-N-{4-[1-(4,4,4-trifluorobutanoyl)piperidin-4-yl]phenyl}azetidine-1-carboxamide] showed an IC50 [1] of 76.9 nM, an IC50 [2] of 32.5 nM and an IC50 [3] of 0.249 nM.
Work on `O=C(Nc1ccc(C2CCN(C(=O)C3CCCC3)CC2)cc1)N1CC(c2cccnc2)C1` [Example 180, N-{4-[1-(cyclopentylcarbonyl)piperidin-4-yl]phenyl}-3-(pyridin-3-yl)azetidine-1-carboxamide] yielded an IC50 [1] of 67.7 nM, an IC50 [2] of 21.3 nM and an IC50 [3] of 0.284 nM.
With `CC1(C(=O)N2CCC(c3ccc(NC(=O)N4CC(c5cccnc5)C4)cc3)CC2)CCCCC1` [Example 181, N-(4-{1-[(1-methylcyclohexyl)carbonyl]piperidin-4-yl}phenyl)-3-(pyridin-3-yl)azetidine-1-carboxamide] the IC50 [1] was 24.3 nM, the IC50 [2] was 8.06 nM and the IC50 [3] was 0.256 nM.
Work on `O=C(Nc1ccc(C2CCN(C(=O)c3ccoc3)CC2)cc1)N1CC(c2cccnc2)C1` [Example 182, N-{4-[1-(furan-3-ylcarbonyl)piperidin-4-yl]phenyl}-3-(pyridin-3-yl)azetidine-1-carboxamide] yielded an IC50 [1] of 6.95 nM, an IC50 [2] of 3.68 nM and an IC50 [3] of 0.219 nM.
`CC(=O)N1CCC(c2ccc(NC(=O)N3CC(c4cccnc4)C3)cc2)CC1` [Example 183, N-[4-(1-acetylpiperidin-4-yl)phenyl]-3-(pyridin-3-yl)azetidine-1-carboxamide] was tested, and the IC50 [1] was 63.3 nM, the IC50 [2] was 22 nM and the IC50 [3] was 0.38 nM.
Work on `COCC(=O)N1CCC(c2ccc(NC(=O)N3CC(c4cccnc4)C3)cc2)CC1` [Example 184, N-{4-[1-(methoxyacetyl)piperidin-4-yl]phenyl}-3-(pyridin-3-yl)azetidine-1-carboxamide] yielded an IC50 [1] of 61.2 nM, an IC50 [2] of 18.5 nM and an IC50 [3] of 0.305 nM.
`O=C(Nc1ccc(C2CCN(C(=O)c3ccsc3)CC2)cc1)N1CC(c2cccnc2)C1` [Example 185, 3-(pyridin-3-yl)-N-{4-[1-(thiophen-3-ylcarbonyl)piperidin-4-yl]phenyl}azetidine-1-carboxamide] gave an IC50 [1] of 9.18 nM, an IC50 [2] of 3.23 nM and an IC50 [3] of 0.228 nM.
`Cc1ccsc1C(=O)N1CCC(c2ccc(NC(=O)N3CC(c4cccnc4)C3)cc2)CC1` [Example 186, N-(4-{1-[(3-methylthiophen-2-yl)carbonyl]piperidin-4-yl}phenyl)-3-(pyridin-3-yl)azetidine-1-carboxamide] gave an IC50 [1] of 3.45 nM, an IC50 [2] of 2.93 nM and an IC50 [3] of 0.345 nM.
`O=C(CN1CCOCC1)N1CCC(c2ccc(NC(=O)N3CC(c4cccnc4)C3)cc2)CC1` [Example 187, N-{4-[1-(morpholin-4-ylacetyl)piperidin-4-yl]phenyl}-3-(pyridin-3-yl)azetidine-1-carboxamide] was tested, and the IC50 [1] was 86.3 nM, the IC50 [2] was 39.3 nM and the IC50 [3] was 0.292 nM.
Work on `O=C(Nc1ccc(C2CCN(C(=O)c3cccs3)CC2)cc1)N1CC(c2cccnc2)C1` [Example 188, 3-(pyridin-3-yl)-N-{4-[1-(thiophen-2-ylcarbonyl)piperidin-4-yl]phenyl}azetidine-1-carboxamide] yielded an IC50 [1] of 2.25 nM, an IC50 [2] of 2.1 nM and an IC50 [3] of 0.188 nM.
`Cc1ccc(C(=O)N2CCC(c3ccc(NC(=O)N4CC(c5cccnc5)C4)cc3)CC2)s1` [Example 189, N-(4-{1-[(5-methylthiophen-2-yl)carbonyl]piperidin-4-yl}phenyl)-3-(pyridin-3-yl)azetidine-1-carboxamide] was tested, and the IC50 [1] was 21.7 nM, the IC50 [2] was 22.6 nM and the IC50 [3] was 0.21 nM.
For `O=C(Nc1ccc(C2CCN(C(=O)c3ccco3)CC2)cc1)N1CC(c2cccnc2)C1` [Example 190, N-{4-[1-(furan-2-ylcarbonyl)piperidin-4-yl]phenyl}-3-(pyridin-3-yl)azetidine-1-carboxamide], the IC50 [1] was 5.83 nM, the IC50 [2] was 2 nM and the IC50 [3] was 0.282 nM.
With `Cn1cccc1C(=O)N1CCC(c2ccc(NC(=O)N3CC(c4cccnc4)C3)cc2)CC1` [Example 191, N-(4-{1-[(1-methyl-1H-pyrrol-2-yl)carbonyl]piperidin-4-yl}phenyl)-3-(pyridin-3-yl)azetidine-1-carboxamide] the IC50 [1] was 7.46 nM, the IC50 [2] was 4.27 nM and the IC50 [3] was 0.291 nM.
Work on `CCC(=O)N1CCC(c2ccc(NC(=O)N3CC(c4cccnc4)C3)cc2)CC1` [Example 192, N-[4-(1-propanoylpiperidin-4-yl)phenyl]-3-(pyridin-3-yl)azetidine-1-carboxamide] yielded an IC50 [1] of 63.2 nM, an IC50 [2] of 23 nM and an IC50 [3] of 0.255 nM.
`CC1(C(=O)N2CCC(c3ccc(NC(=O)N4CC(c5cccnc5)C4)cc3)CC2)CC1` [Example 193, N-(4-{1-[(1-methylcyclopropyl)carbonyl]piperidin-4-yl}phenyl)-3-(pyridin-3-yl)azetidine-1-carboxamide] showed an IC50 [1] of 13.7 nM, an IC50 [2] of 14.4 nM and an IC50 [3] of 0.243 nM.
`O=C(CN1CCCC1)N1CCC(c2ccc(NC(=O)N3CC(c4cccnc4)C3)cc2)CC1` [Example 194, 3-(pyridin-3-yl)-N-{4-[1-(pyrrolidin-1-ylacetyl)piperidin-4-yl]phenyl}azetidine-1-carboxamide] was tested, and the IC50 [1] was 690 nM, the IC50 [2] was 248 nM and the IC50 [3] was 0.592 nM.
With `O=C(Nc1ccc(C2CCN(C(=O)c3nccs3)CC2)cc1)N1CC(c2cccnc2)C1` [Example 195, 3-(pyridin-3-yl)-N-{4-[1-(1,3-thiazol-2-ylcarbonyl)piperidin-4-yl]phenyl}azetidine-1-carboxamide] the IC50 [1] was 8.66 nM, the IC50 [2] was 4.19 nM and the IC50 [3] was 0.281 nM.
Compound `O=C(CC1CCCC1)N1CCC(c2ccc(NC(=O)N3CC(c4cccnc4)C3)cc2)CC1` [Example 196, N-{4-[1-(cyclopentylacetyl)piperidin-4-yl]phenyl}-3-(pyridin-3-yl)azetidine-1-carboxamide] has an IC50 [1] of 64.6 nM, an IC50 [2] of 15 nM and an IC50 [3] of 0.281 nM.
